Assay results published in ChEMBL document CHEMBL1134375, “Synthesis of 2-amino-5-sulfanyl-1,3,4-thiadiazole derivatives and evaluation of their antidepressant and anxiolytic activity” (2001).
Active and inactive are the calls of the source. No cut-off for these calls is given here.

Tests used:
Mus musculus [1] = organism: Mus musculus; test: Maximum percentage decrease in immobility time was determined by despair test in Male albino Swiss mice; NE=no effect; assay type: functional
[2] = Maximum percentage decrease in immobility time was determined by despair test at a dose of 10 mg/kg in Male albino Swiss mice; assay type: functional, Mus musculus
Rattus norvegicus [3] = test: Maximum percentage decrease in immobility time was determined after acute intraperitoneal administration of a dose of 10 mg/kg in rat; assay type: functional
Rattus norvegicus [4] = test: Maximum percentage decrease in immobility time was determined after acute intraperitoneal administration of a dose of 20 mg/kg in rat; assay type: functional
Rattus norvegicus [5] = test: Maximum percentage decrease in immobility time was determined after subchronic administration of a dose of 1.25 mg/kg in rat; assay type: functional
Rattus norvegicus [6] = test: Maximum percentage decrease in immobility time was determined after subchronic administration of a dose of 2.5 mg/kg in rat; assay type: functional
Rattus norvegicus [7] = test: Maximum percentage decrease in immobility time was determined after subchronic administration of a dose of 5 mg/kg in rat; assay type: functional
Rattus norvegicus [8] = test: Maximum percentage decrease in immobility time was determined after acute intraperitoneal administration of a dose of 5 mg/kg in rat; assay type: functional
[9] = Maximum percentage decrease in immobility time was determined by despair test at a dose of 50 mg/kg in Male albino Swiss mice; assay type: functional, Mus musculus
[10] = Maximum percentage decrease in immobility time was determined by despair test at a dose of 0.1 mg/kg in Male albino Swiss mice; assay type: functional, Mus musculus
Mus musculus [11] = organism: Mus musculus; test: Maximum percentage decrease in immobility time in mice, determined by despair test; NE=no effect; assay type: functional
Rattus norvegicus [12] = test: Percentage decrease in immobility time, after acute administration (intraperitoneally) in rat dosed at 20 mg/kg; assay type: functional; settings: route intraperitoneal
Rattus norvegicus [13] = test: Percentage decrease in immobility time, after subchronic administration (intraperitoneally) in rat dosed at 20 mg/kg; assay type: functional; settings: route intraperitoneal
[14] = Maximum percentage decrease in immobility time was determined by despair test at a dose of 0.06 mg/kg in Male albino Swiss mice; assay type: functional, Mus musculus
[15] = Maximum percentage decrease in immobility time was determined by despair test at a dose of 0.5 mg/kg in Male albino Swiss mice; assay type: functional, Mus musculus
[16] = Maximum percentage decrease in immobility time was determined by despair test at a dose of 0.25 mg/kg in Male albino Swiss mice; assay type: functional, Mus musculus
[17] = Maximum percentage decrease in immobility time was determined by despair test at a dose of 5 mg/kg in Male albino Swiss mice; assay type: functional, Mus musculus
[18] = Percentage decrease in motor activity after intraperitoneal administration of a dose of 300 mg/kg in Male albino Swiss mice; assay type: functional, Mus musculus
[19] = Percentage decrease in motor activity after intraperitoneal administration of a dose of 400 mg/kg in Male albino Swiss mice; assay type: functional, Mus musculus
[20] = Percentage decrease in motor activity after intraperitoneal administration of a dose of 500 mg/kg in Male albino Swiss mice; assay type: functional, Mus musculus
[21] = Percentage decrease in motor activity after intraperitoneal administration of a dose of 600 mg/kg in Male albino Swiss mice; assay type: functional, Mus musculus
Rattus norvegicus [22] = test: Amnesia inducing potential (S1 latency) was determined by passive avoidance test in rat 0.5 mg/kg dose; assay type: functional
Rattus norvegicus [23] = test: Amnesia inducing potential (S1 latency) was determined by passive avoidance test in rat at 0 mg/kg dose; assay type: functional
Rattus norvegicus [24] = test: Amnesia inducing potential (S1 latency) was determined by passive avoidance test in rat at 2 mg/kg dose; assay type: functional
Rattus norvegicus [25] = test: Amnesia inducing potential (S1 latency) was determined by passive avoidance test in ratat 1 mg/kg dose; assay type: functional
Rattus norvegicus [26] = test: Amnesia inducing potential (S2 latency) was determined by passive avoidance test in rat at 0.5 mg/kg dose; assay type: functional
Rattus norvegicus [27] = test: Amnesia inducing potential (S2 latency) was determined by passive avoidance test in rat at 1 mg/kg dose; assay type: functional
Rattus norvegicus [28] = test: Amnesia inducing potential (S2 latency) was determined by passive avoidance test in rat at 2 mg/kg dose; assay type: functional
Rattus norvegicus [29] = test: Amnesia inducing potential (S2 latency) was determined by passive avoidance test in ratin rat at 0 mg/kg dose; assay type: functional
Mus musculus [30] = test: Ethanol potentiation in mice (intraperitoneal administration); settings: ip
Mus musculus [31] = test: Effective dose determined by rotarod test in mice (intraperitoneal administration); settings: ip
[32] = Maximum percentage decrease in immobility time was determined by despair test at a dose of 0.3 mg/kg in Male albino Swiss mice; assay type: functional, Mus musculus
[33] = Maximum percentage decrease in immobility time was determined by despair test at a dose of 1 mg/kg in Male albino Swiss mice; assay type: functional, Mus musculus

Cc1ccc(CSc2nnc(N)s2)cc1
Maximum percentage decrease in immobility time (Mus musculus [1]): inactive

Nc1nnc(SCc2ccccc2)s1
Decrease [2]: 35%
Decrease (Rattus norvegicus [3]): 10%
Decrease (Rattus norvegicus [4]): <24%
Decrease (Rattus norvegicus [5]): <23%
Decrease (Rattus norvegicus [6]): <31%
Decrease (Rattus norvegicus [7]): <28%
Decrease (Rattus norvegicus [8]): <33%

CCC(=O)Nc1nnc(SCc2ccccc2)s1
Maximum percentage decrease in immobility time (Mus musculus [1]): inactive

CSc1nnc(N)s1
Decrease [9]: 23%

CCCCCCC(=O)Nc1nnc(SCc2ccccc2)s1
Maximum percentage decrease in immobility time (Mus musculus [1]): inactive

COc1cc(CSc2nnc(NC(C)=O)s2)cc(OC)c1OC
Decrease [10]: 14%

Nc1nnc(SCc2ccc([N+](=O)[O-])cc2)s1
NE (Mus musculus [11]): inactive

COc1cccc(CSc2nnc(NC(C)=O)s2)c1
Maximum percentage decrease in immobility time (Mus musculus [1]): inactive

CC(=O)Nc1nnc(SCc2ccc(C)cc2)s1
Maximum percentage decrease in immobility time (Mus musculus [1]): inactive

CN(C)CCCN1c2ccccc2CCc2ccccc21 [IMIPRAMINE]
Decrease (Rattus norvegicus [12]): <45%
Decrease (Rattus norvegicus [13]): <56%

Nc1nnc(SCc2cccc([N+](=O)[O-])c2)s1
Maximum percentage decrease in immobility time (Mus musculus [1]): inactive

Nc1nnc(SCc2ccc(Cl)cc2)s1
Decrease [10]: 15%

COc1cc(CSc2nnc(N)s2)cc(OC)c1OC
Maximum percentage decrease in immobility time (Mus musculus [1]): inactive

CC(=O)Nc1nnc(SCc2ccccc2)s1
Decrease [14]: 22%

CSc1nnc(N(C)C(C)=O)s1
Maximum percentage decrease in immobility time (Mus musculus [1]): inactive

CC(=O)Nc1nnc(SCc2cccc([N+](=O)[O-])c2)s1
Maximum percentage decrease in immobility time (Mus musculus [1]): inactive

COc1ccc(CSc2nnc(NC(C)=O)s2)cc1
Decrease [15]: 10%

CC(=O)Nc1nnc(SCc2ccc([N+](=O)[O-])cc2)s1
Decrease [16]: 16%

Nc1nnc(SCc2cccc(Cl)c2)s1
Maximum percentage decrease in immobility time (Mus musculus [1]): inactive

CC(=O)N(C)c1nnc(SC(C)C)s1
Decrease [16]: 17%

O=C(Nc1nnc(SCc2ccccc2)s1)c1ccccc1
Maximum percentage decrease in immobility time (Mus musculus [1]): inactive

Cc1cccc(CSc2nnc(N)s2)c1
Decrease [17]: 17%

CCCSc1nnc(N)s1
NE (Mus musculus [11]): inactive

COc1cccc(CSc2nnc(N)s2)c1
Decrease [2]: 21%
Decrease [18]: 19%
Decrease [19]: <26%
Decrease [20]: <46%
Decrease [21]: <68%
Activity (Rattus norvegicus [22]): 4.7
Activity (Rattus norvegicus [23]): 5.6
Activity (Rattus norvegicus [24]): 7.2
Activity (Rattus norvegicus [25]): 5.6
Activity (Rattus norvegicus [26]): 146
Activity (Rattus norvegicus [27]): 135
Activity (Rattus norvegicus [28]): 180
Activity (Rattus norvegicus [29]): 166
ED50 (Mus musculus [30]): 162 mg/kg
ED50 (Mus musculus [31]): 534 mg/kg

COc1ccc(CSc2nnc(N)s2)cc1
Decrease [32]: 16%

CC(=O)Nc1nnc(SCc2cccc(Cl)c2)s1
Maximum percentage decrease in immobility time (Mus musculus [1]): inactive

CC(C)Sc1nnc(N)s1
Decrease [2]: 17%

CC(=O)Nc1nnc(SC(C)C)s1
Decrease [33]: 19%

CC(=O)Nc1nnc(SCc2ccc(Cl)cc2)s1
Maximum percentage decrease in immobility time (Mus musculus [1]): inactive
